From the supplement of paper PMC8253809

How the values were obtained:
[1] = tested on: DIPGX29 (H3.3 K27M diffuse intrinsic pontine glioma line); test: EC50 (inflection of fitted growth-inhibition curve) (log10 M)
Procedure, shortened: (§1)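 Viability readout was CellTiter-Glo luminescence, log2-transformed, normalised per plate to % activity between negative (solvent) and positive control wells, then pooled. This followed a 7-day exposure (3 days for iAstro) at 37 °C, 5% CO2 to a 10-point threefold dilution series (mean top concentration 35 μM), pin-tool delivered in triplicate to patient-derived pHGG/DIPG cell lines and astrocyte controls on 1% Geltrex-coated 384-well plates. Three- and four-parameter log-logistic fits were compared, and the one with the lowest AICc supplied EC50 and maximal response (yFin).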

[2] = tested on: DIPGX37 (H3.3 K27M diffuse intrinsic pontine glioma line); test: as above
Procedure, shortened: as §1

[3] = tested on: DIPGX7 (H3.3 K27M diffuse intrinsic pontine glioma line); test: as above
Procedure, shortened: as §1

[4] = tested on: DIPGX9 (diffuse intrinsic pontine glioma line); test: as above
Procedure, shortened: as §1

[5] = tested on: HABS (astrocyte control); test: as above
Procedure, shortened: as §1

[6] = tested on: HGGX2 (paediatric high-grade glioma line); test: as above
Procedure, shortened: as §1

[7] = tested on: HGGX39 (paediatric high-grade glioma line); test: as above
Procedure, shortened: as §1

[8] = tested on: HGGX42 (H3.3 G34R paediatric high-grade glioma line); test: as above
Procedure, shortened: as §1

[9] = tested on: SUDIPGIV (diffuse intrinsic pontine glioma line); test: as above
Procedure, shortened: as §1

[10] = tested on: SUDIPGVI (diffuse intrinsic pontine glioma line); test: as above
Procedure, shortened: as §1

[11] = tested on: SUDIPGXIII (diffuse intrinsic pontine glioma line); test: as above
Procedure, shortened: as §1

[12] = tested on: SUDIPGXIX (diffuse intrinsic pontine glioma line); test: as above
Procedure, shortened: as §1

[13] = tested on: SUDIPGXVII (diffuse intrinsic pontine glioma line); test: as above
Procedure, shortened: as §1

[14] = tested on: SUDIPGXXI (diffuse intrinsic pontine glioma line); test: as above
Procedure, shortened: as §1

[15] = tested on: iAstro (astrocyte control); test: as above
Procedure, shortened: as §1

[16] = tested on: DIPGX29; test: area under dose-response curve of % growth inhibition (log2 RLU vs DMSO / staurosporine), 1e-11 to 1e-4 M (% x log10 M); higher = more growth inhibition
Procedure, shortened: (§2)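 Patient-derived pHGG/DIPG cell lines and astrocytes, cultured on 384-well plates with a 1% Geltrex coating, were given a 10-point threefold dilution series (mean top concentration 35 μM) in triplicate for 7 days (iAstro 3 days) at 37 °C, 5% CO2. CellTiter-Glo signal, log2-transformed and normalised per plate to % activity against solvent and positive controls, was fitted with a log-logistic curve or, where the sigmoid fit failed, a smoothing spline. Area under the curve was then computed by the trapezoid rule.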

[17] = tested on: DIPGX37; test: as above
Procedure, shortened: as §2

[18] = tested on: DIPGX7; test: as above
Procedure, shortened: as §2

[19] = tested on: DIPGX9; test: as above
Procedure, shortened: as §2

[20] = tested on: HABS; test: as above
Procedure, shortened: as §2

[21] = tested on: HGGX2; test: as above
Procedure, shortened: as §2

[22] = tested on: HGGX39; test: as above
Procedure, shortened: as §2

[23] = tested on: HGGX42; test: as above
Procedure, shortened: as §2

[24] = tested on: HGGX6 (H3.3 G34R paediatric high-grade glioma line); test: as above
Procedure, shortened: as §2

[25] = tested on: SUDIPGIV; test: as above
Procedure, shortened: as §2

[26] = tested on: SUDIPGVI; test: as above
Procedure, shortened: as §2

[27] = tested on: SUDIPGXIII; test: as above
Procedure, shortened: as §2

[28] = tested on: SUDIPGXIX; test: as above
Procedure, shortened: as §2

[29] = tested on: SUDIPGXVII; test: as above
Procedure, shortened: as §2

[30] = tested on: SUDIPGXXI; test: as above
Procedure, shortened: as §2

[31] = tested on: iAstro; test: as above
Procedure, shortened: as §2

Structure (SMILES) | EC50 (log10 M) [1] | EC50 (log10 M) [2] | EC50 (log10 M) [3] | EC50 (log10 M) [4] | EC50 (log10 M) [5] | EC50 (log10 M) [6] | EC50 (log10 M) [7] | EC50 (log10 M) [8] | EC50 (log10 M) [9] | EC50 (log10 M) [10] | EC50 (log10 M) [11] | EC50 (log10 M) [12] | EC50 (log10 M) [13] | EC50 (log10 M) [14] | EC50 (log10 M) [15] | area under dose-response curve [16] | area under dose-response curve [17] | area under dose-response curve [18] | area under dose-response curve [19] | area under dose-response curve [20] | area under dose-response curve [21] | area under dose-response curve [22] | area under dose-response curve [23] | area under dose-response curve [24] | area under dose-response curve [25] | area under dose-response curve [26] | area under dose-response curve [27] | area under dose-response curve [28] | area under dose-response curve [29] | area under dose-response curve [30] | area under dose-response curve [31]
CC(=O)c1cc([N+](=O)[O-])c(Sc2ccc(F)cc2F)s1 | -4.83 | -4.79 | -4.76 | -4.77 | -4.7 | -4.59 | -4.79 | -4.68 | -4.71 | -4.76 | -4.72 | -4.78 | -4.75 | -4.78 | -4.85 | 104 | 88.6 | 94.3 | 92.8 | 26.4 | 78.5 | 19.5 | 84 | 67.9 | 91.3 | 71.4 | 74.4 | 91.8 | 55.7 | 87.4 | 75.5
O=C(c1ccccc1)c1ccc2nc(NC(=O)c3csc(C4CCN(c5ncnc6ccsc56)CC4)n3)[nH]c2c1 | -5.26 | -5.87 | -5.45 | -5.03 | -5.18 | -5.06 | -5.87 | -5.14 | -5.86 | -5.46 | -5.72 | -4.95 | -5.91 | -5.2 | -5.2 | 97.4 | 89.1 | 135 | 62.6 | 42.1 | 83.7 | 55.4 | 72.8 | 55.8 | 51.4 | 67 | 114 | 118 | 68.3 | 147 | 88.4
CCN1CCN(Cc2ccc(Nc3ncc(F)c(-c4cc(F)c5nc(C)n(C(C)C)c5c4)n3)nc2)CC1 [ABEMACICLIB] | -6.78 | -6.56 | -6.11 | -6.86 | – | -6.84 | -6.29 | -6.74 | -6.04 | -6.09 | -6.07 | -6.26 | -6.01 | -6.6 | -6.74 | 107 | 255 | 233 | 124 | 93.8 | 120 | 193 | 83.9 | 127 | 156 | 102 | 109 | 248 | 123 | 252 | 161
COCC1(CO)C(=O)C2CCN1CC2 (stereo not drawn) [APR-246] | -4.85 | -4.79 | -4.79 | -4.82 | – | -4.71 | – | -4.72 | -4.81 | -4.72 | -4.77 | -4.78 | -4.81 | -5.41 | -4.91 | 90.6 | 87.7 | 79.7 | 94.2 | 8.03 | 69.5 | 13 | 72 | 73.1 | 85.3 | 72.7 | 74.7 | 74.8 | 87.2 | 177 | 82.7
CN1[C@@H]2CC[C@H]1C[C@@H](OC(=O)c1cc(Cl)cc(Cl)c1)C2 [BEMESETRON] | -5.09 | -5.32 | -5.23 | -4.9 | -4.73 | -4.99 | -5.05 | -5.38 | -4.99 | – | – | -4.85 | -4.9 | -5.63 | -5.08 | 101 | 137 | 112 | 58.7 | 14.8 | 64 | 85.8 | 119 | 73.6 | 93.7 | 15.4 | 8.98 | 65.3 | 39.9 | 166 | 35.7
CC(C)C[C@H](NC(=O)[C@H](CCc1ccccc1)NC(=O)CN1CCOCC1)C(=O)N[C@@H](Cc1ccccc1)C(=O)N[C@@H](CC(C)C)C(=O)[C@@]1(C)CO1 [CARFILZOMIB] | -5.73 | -6.68 | -7.29 | -7 | -6.6 | -7.54 | -6.2 | -6.77 | -7.24 | -6.71 | -5.36 | -6.53 | -6.36 | – | -8.68 | 171 | 266 | 303 | 343 | 280 | 344 | 239 | 213 | 217 | 320 | 259 | 148 | 294 | 249 | 649 | 379
Cc1noc2c1-c1ccccc1C(c1ccc(Cl)cc1)=N[C@H]2CC(N)=O [CPI-0610] | -5.05 | – | -4.88 | -5.71 | -5.3 | -5.42 | -4.96 | -5.3 | -5.51 | -5.11 | – | -5.17 | -5.39 | -6.13 | -5.98 | 99.5 | 81.3 | 105 | 194 | 97.5 | 98.6 | 110 | 110 | 59.4 | 114 | 121 | 13.5 | 156 | 88.9 | 251 | 67
CCCc1cc(C)[nH]c(=O)c1CNC(=O)c1cc(-c2ccnc(N3CCN(C)CC3)c2)cc2c1cnn2C(C)C [GSK343] | -4.6 | -4.59 | -4.63 | -4.74 | -4.81 | -4.78 | -4.59 | -4.7 | -4.69 | -4.59 | -4.57 | -4.69 | – | -4.81 | -4.88 | 78.7 | 99.1 | 71.6 | 90.7 | 56.1 | 88.2 | 12.1 | 98.2 | 66.3 | 51.3 | 66.2 | 49.9 | 122 | 12.3 | 102 | 58.3
C=CCn1c(=O)c2cnc(Nc3ccc(N4CCN(C)CC4)cc3)nc2n1-c1cccc(C(C)(C)O)n1 [MK-1775] | -6.91 | -6.2 | -5.75 | -5.33 | -5.41 | -6.67 | -5.05 | -5.45 | -5.92 | – | – | -6.03 | -5.54 | -6.07 | -6.04 | 114 | 48.9 | 58.4 | 60 | 35.1 | 83 | 46.4 | 53.5 | 37.6 | 96 | 27.9 | 15 | 73.8 | 39.4 | 190 | 71.1
COc1ncc(-c2ccc3nccc(-c4ccnnc4)c3c2)cc1NS(=O)(=O)c1ccc(F)cc1F [OMIPALISIB] | -5.88 | -6.38 | – | -7.52 | -6.58 | -6 | -5.79 | -6.22 | -6.11 | -6.23 | -5.65 | -7 | -6.19 | -7.11 | -5.44 | 219 | 290 | 248 | 366 | 262 | 263 | 224 | 237 | 193 | 245 | 257 | 225 | 326 | 251 | 366 | 64
CCOc1cc(C(C)(C)C)ccc1C1=N[C@@](C)(c2ccc(Cl)cc2)[C@@](C)(c2ccc(Cl)cc2)N1C(=O)N1CCN(CCCS(C)(=O)=O)CC1 [RG7112] | -4.8 | – | -4.82 | -5.7 | -5.4 | -4.78 | -4.85 | -4.64 | -4.86 | -4.87 | -4.75 | -5.56 | -4.8 | -6.49 | -4.85 | 85.4 | 169 | 73.2 | 204 | 176 | 77.8 | 82.1 | 76 | 61.6 | 47.8 | 30.5 | 77.5 | 204 | 91.7 | 288 | 69.8
C=CCNC1=C2C[C@@H](C)C[C@H](OC)[C@H](O)[C@@H](C)/C=C(\C)[C@H](OC(N)=O)[C@@H](OC)/C=C\C=C(/C)C(=O)NC(=CC1=O)C2=O [TANESPIMYCIN] | -5.85 | -6.99 | – | -6.85 | -5.41 | -4.97 | -6.48 | -6.01 | -5.88 | -5.19 | -4.95 | -6.32 | -4.99 | -5.76 | -5.41 | 132 | 312 | 89.8 | 309 | 161 | 83 | 242 | 103 | 59.6 | 138 | 42.2 | 80.1 | 214 | 89.8 | 223 | 50.9
